Test results taken from patent US4948782A, “A method of promoting the growth of domestic animals with erythromycin derivative containing composition” (Kitasato Kenkyusho, priority 1987, dated 1990).

Columns and labels:
Type in all cases: cell-based
Escherichia coli NIHJ = assay: MIC, Escherichia coli NIHJ (EC)
[1] = system: Klebsiella pneumoniae ATCC 10031; assay: MIC, Klebsiella pneumoniae ATCC 10031 (KP); settings: ATCC10031; Klebsiella pneumoniae ATCC 10031; read-out: MIC KP
[2] = system: Staphylococcus aureus ATCC 6538P; assay: MIC, Staphylococcus aureus ATCC 6538P (SA(1)); settings: Staphylococcus aureus, ATCC6538P, Staphylococcus aureus ATCC 6538P; read-out: MIC SA (1)
Description: (§1) The minimum inhibitory concentrations (MIC: mcg/ml) of the erythromycin derivatives of the present invention and the control erythromycin derivative (*) as the known growth promoting agent on typical test bacteria are shown in the following Tables 1 to 5.
SA(1): Staphylococcus aureus ATCC 6538P

Bacillus cereus IFO 3001 = assay: MIC, Bacillus cereus IFO 3001 (BC); settings: Bacillus cereus, IFO3001, Bacillus cereus IFO 3001; read-out: MIC BC
Bacillus subtilis = assay: MIC, Bacillus subtilis (BS); settings: read-out: MIC BS
[3] = system: Staphylococcus aureus FDA 209P; assay: MIC, Staphylococcus aureus FDA 209P (SA(2)); settings: Staphylococcus aureus, FDA209P, Staphylococcus aureus FDA 209P; read-out: MIC SA (2)
Description: as §1
SA(2): Staphylococcus aureus FDA 209P

SMILES | MIC (Escherichia coli NIHJ) [µg/mL] | MIC [1] [µg/mL] | MIC [2] [µg/mL] | MIC (Bacillus cereus IFO 3001) [µg/mL] | MIC (Bacillus subtilis) [µg/mL] | MIC [3] [µg/mL]
CCC[N+](C)(C)[C@H]1C[C@@H](C)O[C@@H](O[C@@H]2[C@@H](C)[C@H](O[C@H]3C[C@@](C)(OC)[C@@H](O)[C@H](C)O3)[C@@H](C)C(=O)O[C@H](CC)[C@@]3(C)OC4(O[C@]2(C)CC4C)[C@H](C)[C@H]3O)[C@@H]1O (stereo partly drawn) [Compound 72] | > 100 | > 100 | > 100 | > 100 | > 100 | > 100
CC[C@H]1OC(=O)[C@H](C)[C@@H](O[C@H]2C[C@@](C)(OC)[C@@H](O)[C@H](C)O2)[C@H](C)[C@@H](O[C@@H]2O[C@H](C)C[C@H]([N+](C)(C)CC)[C@H]2O)[C@@]2(C)CC(C)=C(O2)[C@H](C)[C@@H](O)C1C (stereo partly drawn) [Compound 74] | > 100 | > 100 | 100 | 100 | > 100 | 100
CC[C@H]1OC(=O)[C@H](C)[C@@H](O[C@H]2C[C@@](C)(OC)[C@@H](O)[C@H](C)O2)[C@H](C)[C@@H](O[C@@H]2O[C@H](C)C[C@H]([N+](C)(C)CC)[C@H]2O)[C@](C)(O)C[C@@H](C)C(=O)[C@H](C)[C@@H](O)[C@]1(C)O [Compound 76] | > 100 | > 100 | 6.25 | 6.25 | < 3.12 | 12.5
C=CC[N+](C)(C)[C@H]1C[C@@H](C)O[C@@H](O[C@@H]2[C@@H](C)[C@H](O[C@H]3C[C@@](C)(OC)[C@@H](O)[C@H](C)O3)[C@@H](C)C(=O)O[C@H](CC)[C@@](C)(O)[C@H](O)[C@@H](C)C(=O)[C@H](C)C[C@@]2(C)O)[C@@H]1O [Compound 77] | > 100 | > 100 | 25 | 12.5 | 12.5 | 50
C#CC[N+](C)(C)[C@H]1C[C@@H](C)O[C@@H](O[C@@H]2[C@@H](C)[C@H](O[C@H]3C[C@@](C)(OC)[C@@H](O)[C@H](C)O3)[C@@H](C)C(=O)O[C@H](CC)[C@@](C)(O)[C@H](O)[C@@H](C)C(=O)[C@H](C)C[C@@]2(C)O)[C@@H]1O [Compound 78] | > 100 | > 100 | 12.5 | 6.25 | 6.25 | 25

Second part, the compound after the results:

MIC (Escherichia coli NIHJ) [µg/mL] | MIC [1] [µg/mL] | MIC [2] [µg/mL] | MIC (Bacillus cereus IFO 3001) [µg/mL] | MIC (Bacillus subtilis) [µg/mL] | MIC [3] [µg/mL] | SMILES
> 100 | > 100 | > 100 | 100 | 100 | > 100 | CC[C@H]1OC(=O)[C@H](C)[C@@H](O[C@H]2C[C@@](C)(OC)[C@@H](O)[C@H](C)O2)[C@H](C)[C@@H](O[C@@H]2O[C@H](C)C[C@H]([N+](C)(C)CC)[C@H]2O)[C@@]2(C)CC(C)C3(O[C@@]1(C)[C@H](O)[C@H]3C)O2 (stereo partly drawn) [Compound 71]
> 100 | > 100 | > 100 | > 100 | > 100 | > 100 | CC[C@H]1OC(=O)[C@H](C)[C@@H](O[C@H]2C[C@@](C)(OC)[C@@H](O)[C@H](C)O2)[C@H](C)[C@@H](O[C@@H]2O[C@H](C)C[C@H]([N+](C)(C)Cc3ccccc3)[C@H]2O)[C@@]2(C)CC(C)C3(O[C@@]1(C)[C@H](O)[C@H]3C)O2 (stereo partly drawn) [Compound 73]
> 100 | > 100 | 100 | 100 | 100 | 100 | C#CC[N+](C)(C)[C@H]1C[C@@H](C)O[C@@H](O[C@@H]2[C@@H](C)[C@H](O[C@H]3C[C@@](C)(OC)[C@@H](O)[C@H](C)O3)[C@@H](C)C(=O)O[C@H](CC)C(C)[C@H](O)[C@@H](C)C3=C(C)C[C@@]2(C)O3)[C@@H]1O (stereo partly drawn) [Compound 75]
